# From patent US20070128217A1 (priority 2003, published 2007)
# Legend:
# [1] = test system: rabbit serum obtained by immunizing a rabbit with the SARS-CoV strain Frankfurt 1; type: binding; design: Binding of a rabbit serum to linear peptides / Binding of a rabbit serum to looped peptides / Rabbit serum linear peptides / Rabbit serum looped peptides / Binding of a rabbit serum to linear peptides of protein N of SARS-CoV Urbani (Rabbit serum linear peptides) / Binding of a rabbit serum to looped/cyclic peptides of protein N of SARS-CoV Urbani (Rabbit serum looped peptides): unit not given here
# [2] = test system: antibodies in sera from SARS patients (sera 1a, 1b, 2, 6, 37, 62, London, SARS-yellow, SARS-green); type: binding, human; design: Binding of serum 6 to linear peptides of protein X1 of SARS-CoV Urbani / Binding of serum 37 to linear peptides of protein X1 of SARS-CoV Urbani / Binding of serum 6 to looped/cyclic peptide (PEPSCAN-ELISA) / Binding of serum 37 to looped/cyclic peptide (PEPSCAN-ELISA) / Binding of serum 37 to looped/cyclic peptides of protein X1 of SARS-CoV Urbani / Binding of serum 6 to linear peptides of protein X2 / Binding of serum 37 to linear peptides of protein X2 / Binding of serum 37 to looped/cyclic peptides of protein X2 of SARS-CoV Urbani / Binding of serum 6 to linear peptides of protein M of SARS-CoV Urbani / Binding of serum 37 to linear peptides of protein M of SARS-CoV Urbani / Binding of serum 6 to looped/cyclic peptides of protein M of SARS-CoV Urbani / Binding of serum 37 to looped/cyclic peptides of protein M of SARS-CoV Urbani / Binding of serum 6 to linear peptides of protein X3 of SARS-CoV Urbani / Binding of serum 37 to linear peptides of protein X3 of SARS-CoV Urbani / Binding of serum 37 to looped/cyclic peptides of protein X3 of SARS-CoV Urbani / Binding of serum 6 to linear peptides of protein X4 of SARS-CoV Urbani / Binding of serum 37 to linear peptides of protein X4 of SARS-CoV Urbani / Binding of serum 37 to looped/cyclic peptides of protein X4 of SARS-CoV Urbani / Binding of serum 6 to linear peptides of protein X5 of SARS-CoV Urbani / Binding of serum 37 to linear peptides of protein X5 of SARS-CoV Urbani / Binding of serum 37 to looped/cyclic peptides of protein X5 of SARS-CoV Urbani / Binding of serum 6 to linear peptides of protein N of SARS-CoV Urbani / Binding of serum 37 to linear peptides of protein N of SARS-CoV Urbani / Binding of serum 6 to linear peptide (PEPSCAN-ELISA) / Binding of serum 1a to looped/cyclic peptides of protein N of SARS-CoV Urbani / Binding of serum 1b to looped/cyclic peptides of protein N of SARS-CoV Urbani / Binding of serum 2 to looped/cyclic peptides of protein N of SARS-CoV Urbani / Binding of serum 6 to looped/cyclic peptides of protein N of SARS-CoV Urbani / Binding of serum 37 to looped/cyclic peptides of protein N of SARS-CoV Urbani / Binding of serum 62 to looped/cyclic peptides of protein N of SARS-CoV Urbani / Binding of serum London to looped/cyclic peptides of protein N of SARS-CoV Urbani / Binding of serum SARS-green to looped/cyclic peptides of protein N of SARS-CoV Urbani: unit not given here
# [3] = test system: control sera (pooled serum of ten healthy LUMC hospital workers; commercial negative donor pooled serum from the Dutch bloodbank); type: binding, human; design: Binding of Control serum LUMC to linear peptides / Binding of Control serum Blood-bank to linear peptides / Binding of Control serum LUMC to looped peptides / Binding of Control Serum Blood-Bank to Looped peptides / Binding of Control serum LUMC to linear peptides of the protein M of SARS-CoV Urbani / Binding of Control serum Blood-bank to linear peptides of the protein M of SARS-CoV Urbani / Binding of Control serum LUMC to looped peptides of the protein M of SARS-CoV Urbani / Binding of Control Serum Blood-Bank to Looped peptides of the protein M of SARS-CoV Urbani: unit not given here
sequence,measurement,setting,value
IARCWYLHEGHQTAA,Rabbit serum linear peptides,[1],0.7
same,Rabbit serum looped peptides,[1],0.3
IIRGHLRMAGHPLGR,Rabbit serum linear peptides,[1],0.6
same,Rabbit serum looped peptides,[1],2.0
IMRCWLCWKGKSKNP,Binding of a rabbit serum to linear peptides,[1],0.1
same,Binding of a rabbit serum to looped peptides,[1],0.3
KQLLEQWNLVIGFLF,Binding of serum 1a to linear peptides of protein M of SARS-CoV Urbani,[2],0.7
same,Binding of serum 1a to looped/cyclic peptides of protein M of SARS-CoV Urbani,[2],0.7
same,Binding of serum 1b to linear peptides of protein M of SARS-CoV Urbani,[2],0.6
same,Binding of serum 1b to looped/cyclic peptides of protein M of SARS-CoV Urbani,[2],0.6
same,Binding of serum 2 to linear peptides of protein M of SARS-CoV Urbani,[2],0.4
same,Binding of serum 2 to looped/cyclic peptides of protein M of SARS-CoV Urbani,[2],0.5
same,Binding of serum 6 to linear peptides of protein M of SARS-CoV Urbani,[2],0.3
same,Binding of serum 6 to looped/cyclic peptides of protein M of SARS-CoV Urbani,[2],1.0
same,Binding of serum 37 to linear peptides of protein M of SARS-CoV Urbani,[2],0.3
same,Binding of serum 37 to looped/cyclic peptides of protein M of SARS-CoV Urbani,[2],0.5
same,Binding of serum 62 to linear peptides of protein M of SARS-CoV Urbani,[2],0.4
same,Binding of serum 62 to looped/cyclic peptides of protein M of SARS-CoV Urbani,[2],0.7
same,Binding of serum London to linear peptides of protein M of SARS-CoV Urbani,[2],0.3
same,Binding of serum London to looped/cyclic peptides of protein M of SARS-CoV Urbani,[2],0.3
same,Binding of serum SARS-green to linear peptides of protein M of SARS-CoV Urbani,[2],0.4
same,Binding of serum SARS-green to looped/cyclic peptides of protein M of SARS-CoV Urbani,[2],0.4
same,Binding of serum SARS-yellow to linear peptides of protein M of SARS-CoV Urbani,[2],0.2
same,Binding of serum SARS-yellow to looped/cyclic peptides of protein M of SARS-CoV Urbani,[2],0.8
same,Binding of Control Serum Blood-Bank to Looped peptides of the protein M of SARS-CoV Urbani,[3],0.6
same,Binding of Control serum Blood-bank to linear peptides of the protein M of SARS-CoV Urbani,[3],0.5
same,Binding of Control serum LUMC to linear peptides of the protein M of SARS-CoV Urbani,[3],0.6
same,Binding of Control serum LUMC to looped peptides of the protein M of SARS-CoV Urbani,[3],0.7
LACPVLAAVYRINWV,Binding of Control Serum Blood-Bank to Looped peptides of the protein M of SARS-CoV Urbani,[3],0.7
same,Binding of Control serum Blood-bank to linear peptides of the protein M of SARS-CoV Urbani,[3],0.7
same,Binding of Control serum LUMC to linear peptides of the protein M of SARS-CoV Urbani,[3],0.6
same,Binding of Control serum LUMC to looped peptides of the protein M of SARS-CoV Urbani,[3],0.7
LCKHKKVSTNLGTHS,Binding of serum 1a to looped/cyclic peptides of protein X2 of SARS-CoV Urbani,[2],0.3
same,Binding of serum 1b to looped/cyclic peptides of protein X2 of SARS-CoV Urbani,[2],0.4
same,Binding of serum 2 to looped/cyclic peptides of protein X2 of SARS-CoV Urbani,[2],0.3
same,Binding of serum 6 to looped/cyclic peptides of protein X2 of SARS-CoV Urbani,[2],0.3
same,Binding of serum 37 to looped/cyclic peptides of protein X2 of SARS-CoV Urbani,[2],0.3
same,Binding of serum 62 to looped/cyclic peptides of protein X2 of SARS-CoV Urbani,[2],0.4
same,Binding of serum London to looped/cyclic peptides of protein X2 of SARS-CoV Urbani,[2],0.3
same,Binding of serum SARS-green to looped/cyclic peptides of protein X2 of SARS-CoV Urbani,[2],0.3
same,Binding of serum SARS-yellow to looped/cyclic peptides of protein X2 of SARS-CoV Urbani,[2],0.5
LFAGTHITMTTVYHI,Binding of a rabbit serum to linear peptides,[1],0.6
same,Binding of a rabbit serum to looped peptides,[1],0.5
LLIQQWTQFMMSRRR,Binding of Control Serum Blood-Bank to Looped peptides,[3],0.6
same,Binding of Control serum Blood-bank to linear peptides,[3],0.5
same,Binding of Control serum LUMC to linear peptides,[3],0.4
same,Binding of Control serum LUMC to looped peptides,[3],0.5
MMPTTLFAGTHITMT,Binding of a rabbit serum to linear peptides,[1],0.6
same,Binding of a rabbit serum to looped peptides,[1],0.6
MPTTLFAGTHITMTT,Binding of a rabbit serum to linear peptides,[1],0.7
same,Binding of a rabbit serum to looped peptides,[1],0.3
MVQTCTPNVTINCQD,Rabbit serum linear peptides,[1],0.5
same,Rabbit serum looped peptides,[1],0.2
QLALYKGFQPICNLL,Binding of serum 1a to linear peptides of protein X1 of SARS-CoV Urbani,[2],0.6
same,Binding of serum 1b to linear peptides of protein X1 of SARS-CoV Urbani,[2],0.5
same,Binding of serum 2 to linear peptides of protein X1 of SARS-CoV Urbani,[2],0.4
same,Binding of serum 6 to linear peptides of protein X1 of SARS-CoV Urbani,[2],0.5
same,Binding of serum 37 to linear peptides of protein X1 of SARS-CoV Urbani,[2],0.6
same,Binding of serum 62 to linear peptides of protein X1 of SARS-CoV Urbani,[2],0.6
same,Binding of serum London to linear peptides of protein X1 of SARS-CoV Urbani,[2],0.2
same,Binding of serum SARS-green to linear peptides of protein X1 of SARS-CoV Urbani,[2],0.2
same,Binding of serum SARS-yellow to linear peptides of protein X1 of SARS-CoV Urbani,[2],0.5
RTLSYYKLGASQPVG,Binding of Control Serum Blood-Bank to Looped peptides of the protein M of SARS-CoV Urbani,[3],0.6
same,Binding of Control serum Blood-bank to linear peptides of the protein M of SARS-CoV Urbani,[3],0.9
same,Binding of Control serum LUMC to linear peptides of the protein M of SARS-CoV Urbani,[3],0.8
same,Binding of Control serum LUMC to looped peptides of the protein M of SARS-CoV Urbani,[3],0.8
TLGSITAQPVKTDNA,Binding of Control Serum Blood-Bank to Looped peptides,[3],0.6
same,Binding of Control serum Blood-bank to linear peptides,[3],0.5
same,Binding of Control serum LUMC to linear peptides,[3],0.7
same,Binding of Control serum LUMC to looped peptides,[3],0.6
WQLALYKGFQFTCNL,Binding of Control Serum Blood-Bank to Looped peptides,[3],0.6
same,Binding of Control serum Blood-bank to linear peptides,[3],0.6
same,Binding of Control serum LUMC to linear peptides,[3],0.6
same,Binding of Control serum LUMC to looped peptides,[3],0.7
